From US7662851B2, “Use of specific cyklolignans” (Axelar AB, priority 2001, dated 2010)
Like-named read-outs stand apart in the source and are kept apart here.

Key:
Assay type in all cases: cell-based
IGF-1R [1] = biological target: T1, IGF-1R (Homo sapiens, UniProt P08069); experiment: IGF-1R phosphorylation in various malignant cell types (EC50); set-up: endogenous in cells; host or cells: 12 malignant cell lines (e.g. SK-MEL-2, SK-MEL-5, SK-MEL-28); conditions: 1 h
Method: (§1) Cells were cultured to subconfluency in 6-cm plates, and then fresh medium containing 10% FBS and the desired compounds were added for 1 h. The cells were then lyzed and subjected to immunoprecipitation using specific antibodies. Immunoprecipitates were resolved by sodium dodecyl sulphate polyacrylamide gel electrophoresis (SDS-PAGE) and transferred to nitro-cellulose membranes and incubated with anti-phosphotyrosine antibody. Antibodies to actin (in cell extract) or IGF-1R beta subunit were used as loading controls. After detection the films were scanned for quantification.
12 cell lines of different origins were seeded in 6-cm dishes, at a concentration of 10,000 cells/cm^2 in Minimal Essential Medium supplemented with fetal calf serum (FCS). When the cells had reached a concentration of 65,000 cells/cm^2, they were treated with 0, 0.01, 0.025, 0.05, 0.1 or 1.0 uM doses of podophyllotoxin and picropodophyllin for 1 h. The cells were then harvested for assay and quantification of IGF-1R phosphorylation as described above. The EC50 value, the Efficient Concentration 50%, i.e. the concentration needed to reduce the phosphorylation with 50%, for each inhibitor and cell line, is then calculated. The results are based on two different experiments.

insulin receptor (IR) = biological target: T2, insulin receptor (IR) (Homo sapiens, UniProt P06213); experiment: Tyrosine phosphorylation of IR in intact FM55 melanoma cells; conditions: 0.05 μM, 1 h
T2 construct: endogenous in cells; host or cells: FM55 melanoma cells
T2 sequence (P06213 28-1382): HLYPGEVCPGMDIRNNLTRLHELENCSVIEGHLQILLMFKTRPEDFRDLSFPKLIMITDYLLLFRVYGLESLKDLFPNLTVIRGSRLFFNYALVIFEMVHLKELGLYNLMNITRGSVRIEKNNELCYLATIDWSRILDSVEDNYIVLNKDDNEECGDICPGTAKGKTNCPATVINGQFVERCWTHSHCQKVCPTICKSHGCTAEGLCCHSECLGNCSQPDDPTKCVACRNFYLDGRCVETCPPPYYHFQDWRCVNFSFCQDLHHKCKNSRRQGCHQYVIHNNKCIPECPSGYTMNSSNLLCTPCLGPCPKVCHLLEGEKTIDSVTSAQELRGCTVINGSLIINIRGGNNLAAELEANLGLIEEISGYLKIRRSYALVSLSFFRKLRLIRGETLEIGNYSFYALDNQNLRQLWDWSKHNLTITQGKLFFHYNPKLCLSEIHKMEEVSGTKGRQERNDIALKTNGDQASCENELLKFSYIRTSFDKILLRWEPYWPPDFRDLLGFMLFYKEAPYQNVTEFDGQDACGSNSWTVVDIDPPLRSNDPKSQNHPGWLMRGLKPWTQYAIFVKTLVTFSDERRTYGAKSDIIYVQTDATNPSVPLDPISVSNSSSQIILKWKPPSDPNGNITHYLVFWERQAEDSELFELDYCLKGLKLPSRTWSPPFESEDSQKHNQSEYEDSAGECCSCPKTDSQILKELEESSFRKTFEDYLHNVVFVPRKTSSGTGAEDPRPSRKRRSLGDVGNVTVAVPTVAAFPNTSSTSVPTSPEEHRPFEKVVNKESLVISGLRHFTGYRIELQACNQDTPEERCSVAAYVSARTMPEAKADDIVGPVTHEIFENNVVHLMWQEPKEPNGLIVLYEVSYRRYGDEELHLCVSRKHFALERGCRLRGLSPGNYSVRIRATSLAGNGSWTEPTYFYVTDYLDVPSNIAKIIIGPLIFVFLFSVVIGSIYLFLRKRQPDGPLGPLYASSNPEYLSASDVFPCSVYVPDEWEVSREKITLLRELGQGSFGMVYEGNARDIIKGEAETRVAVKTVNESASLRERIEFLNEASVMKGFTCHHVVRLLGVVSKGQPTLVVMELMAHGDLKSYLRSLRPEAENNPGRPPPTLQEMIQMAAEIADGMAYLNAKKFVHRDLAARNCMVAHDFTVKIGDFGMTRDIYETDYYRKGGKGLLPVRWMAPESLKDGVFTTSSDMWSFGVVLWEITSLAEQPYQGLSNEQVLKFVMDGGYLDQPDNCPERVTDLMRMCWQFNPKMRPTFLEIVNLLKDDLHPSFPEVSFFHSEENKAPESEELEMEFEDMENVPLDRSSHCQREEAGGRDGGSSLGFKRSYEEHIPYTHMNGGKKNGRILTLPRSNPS
Method: as §1
(§2) FM55 melanoma cells were cultured in the same way as described in Experiment 1. When reaching a density of 65,000 cells/cm^2 in the dishes, they were treated for 1 h with 0 (control) and 0.05 μM of picropodophyllin and podophyllotoxin, respectively. The cells were then isolated and subjected to immunoprecipitation of the IGF-1R, fibroblast growth factor receptor (FGFR), platelet-derived growth factor receptor (PDGFR), epidermal growth factor receptor (EGFR), insulin receptor (IR) and insulin substrate-1 (IRS-1) using antibodies to respective molecules. IRS-1 is a substrate of IGF-1R, and therefore its phosphorylation is dependent on phosphorylated IGF-1R. Gelelectrophoresis, Western blotting and quantification of the different signals were performed as described above.

[2] = tested on: insulin substrate-1 (IRS-1); experiment: Phosphorylation of IRS-1 in intact FM55 melanoma cells; conditions: 0.05 μM, 1 h
Method: as §1, §2

[3] = tested on: platelet-derived growth factor receptor (PDGFR); experiment: Tyrosine phosphorylation of PDGFR in intact FM55 melanoma cells; conditions: 0.05 μM, 1 h
Method: as §1, §2

IGF-1R [4] = biological target: T1, IGF-1R; experiment: IGF-1R phosphorylation in HaCaT cells (psoriasis model); set-up: expressed in transfected cells; host or cells: P6 cell line (murine fibroblasts overexpressing human IGF-1R); receptor captured on plates with an antibody to the beta subunit; conditions: 0.05 μM, 1 h, control 100
Method: Keratinocytes (HaCaT cells) were provided by and tested in collaboration with Professor Mona Bäckdahl, Department of Dermatology, Karolinska Hospital, Stockholm, Sweden. The HaCaT cell line is a spontaneously immortalized human keratinocyte cell line (Boukamp P, et al., J Cell Biol 106: 761-771, 1988), which is frequently used as an experimental model for psoriasis (Wraight, C. J., et al. Nat Biotechnol 18: 521-526, 2000.) HaCaT cells were cultured in Dulbecco's Modified Eagle's Medium containing 10% fetal bovine serum, glutamine, benzylpenicillin and streptomycin.
Cells were cultured to subconfluency in 6-cm plates, and then fresh medium containing 10% FBS and the desired compounds were added for 1 h. The cells were then lyzed and subjected to immunoprecipitation using specific antibodies. […] After detection the films were scanned for quantification.
HaCaT cells, which are immortalized human keratinocytes and represent a model cell line for psoriasis, were seeded in 6-cm dishes or in 96-well plates (medium volume in a well was 100 μl), at a concentration of 7,000 cells/cm^2 in Dulbecco's Modified Eagle's Medium containing 10% fetal bovine serum. […] After 1 h incubation the cells in the 6-cm dishes were harvested for assay and quantification of IGF-1R phosphorylation as described in Experiment 1. […]

HepG2 hepatoma cell line = experiment: Cell viability (XTT), HepG2
Method: (§3) Cell proliferation kit II (Roche Inc.) is based on colorimetric change of the yellow tetrazolium salt XTT in orange formazan dye by the respiratory chain of viable cells (Roehm, N W, et al., J Immunol Methods 142:257-265, 1991). Cells seeded at a concentration of 5000/well in 100 μl medium in a 96-well plate were treated with different drugs in the given concentration. After 24 or 48 h the cells were incubated, according to the manufacturer's protocol, with XTT labelling mixture. After 4 h the formazan dye is quantified using a scanning multiwell spectrophotometer with a 495-nm filter. The absorbance is directly correlated with the number of viable cells. The standard absorbance curve was drawn by means of untreated cells seeded at a concentration of from 1000 to 10 000 cells/well with an increasing rate of 1000 cells/well. All standards and experiments were performed in triplicates.
(§4) 12 different types of cell lines were seeded in 96-well plates (medium volume in a well was 100 μl), at a concentration of 10,000 cells/cm^2 in Minimal Essential Medium supplemented with fetal calf serum. When the cells had reached a concentration of 65,000 cells/cm^2, they were treated with different doses of podophyllotoxin and picropodophyllin for 48 h. Cell viability was then assayed (see above). […]

[5] = biological target: T3, epidermal growth factor receptor (EGFR) (Homo sapiens, UniProt P00533); experiment: Tyrosine phosphorylation of EGFR in intact FM55 melanoma cells; conditions: 0.05 μM, 1 h
T3 construct: endogenous in cells; host or cells: FM55 melanoma cells
T3 sequence (P00533 25-1210): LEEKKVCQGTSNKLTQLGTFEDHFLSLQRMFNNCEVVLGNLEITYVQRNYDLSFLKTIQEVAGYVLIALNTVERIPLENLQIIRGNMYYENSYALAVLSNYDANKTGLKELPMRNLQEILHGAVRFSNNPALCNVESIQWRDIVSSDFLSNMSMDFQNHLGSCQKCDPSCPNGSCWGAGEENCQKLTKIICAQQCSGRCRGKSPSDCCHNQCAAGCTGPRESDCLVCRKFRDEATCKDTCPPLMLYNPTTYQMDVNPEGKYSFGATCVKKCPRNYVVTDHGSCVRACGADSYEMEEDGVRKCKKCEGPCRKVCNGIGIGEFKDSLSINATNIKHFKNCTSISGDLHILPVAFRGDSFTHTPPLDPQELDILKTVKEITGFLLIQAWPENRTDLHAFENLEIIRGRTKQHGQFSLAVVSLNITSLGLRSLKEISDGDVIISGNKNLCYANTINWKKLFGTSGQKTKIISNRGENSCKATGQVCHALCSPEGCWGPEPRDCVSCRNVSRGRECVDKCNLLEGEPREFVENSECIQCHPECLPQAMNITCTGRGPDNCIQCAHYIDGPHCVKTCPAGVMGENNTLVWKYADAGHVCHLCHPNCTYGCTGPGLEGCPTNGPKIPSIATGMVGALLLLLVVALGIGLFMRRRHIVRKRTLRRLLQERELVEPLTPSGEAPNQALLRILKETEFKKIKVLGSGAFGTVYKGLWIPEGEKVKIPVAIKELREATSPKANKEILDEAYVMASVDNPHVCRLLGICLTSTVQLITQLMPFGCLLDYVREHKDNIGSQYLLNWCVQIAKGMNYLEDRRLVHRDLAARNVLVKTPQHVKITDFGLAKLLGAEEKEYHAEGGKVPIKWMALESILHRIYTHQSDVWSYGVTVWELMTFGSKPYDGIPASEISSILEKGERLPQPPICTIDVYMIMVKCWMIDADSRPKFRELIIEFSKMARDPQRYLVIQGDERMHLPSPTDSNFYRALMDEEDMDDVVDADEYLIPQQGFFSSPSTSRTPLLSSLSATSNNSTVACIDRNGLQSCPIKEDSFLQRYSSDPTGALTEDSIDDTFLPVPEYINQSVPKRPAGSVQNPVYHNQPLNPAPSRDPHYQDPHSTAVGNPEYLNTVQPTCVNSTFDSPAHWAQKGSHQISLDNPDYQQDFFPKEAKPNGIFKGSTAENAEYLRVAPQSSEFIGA
Method: as §1, §2

[6] = tested on: PC-3 prostatic carcinoma cell line; experiment: Cell viability (XTT), PC-3; conditions: Homo sapiens, read-out: EC50 for cell viability
Method: as §3, §4

[7] = P6 fibroblasts with overexpressed IGF-1R

T1 sequence (P08069 31-1367): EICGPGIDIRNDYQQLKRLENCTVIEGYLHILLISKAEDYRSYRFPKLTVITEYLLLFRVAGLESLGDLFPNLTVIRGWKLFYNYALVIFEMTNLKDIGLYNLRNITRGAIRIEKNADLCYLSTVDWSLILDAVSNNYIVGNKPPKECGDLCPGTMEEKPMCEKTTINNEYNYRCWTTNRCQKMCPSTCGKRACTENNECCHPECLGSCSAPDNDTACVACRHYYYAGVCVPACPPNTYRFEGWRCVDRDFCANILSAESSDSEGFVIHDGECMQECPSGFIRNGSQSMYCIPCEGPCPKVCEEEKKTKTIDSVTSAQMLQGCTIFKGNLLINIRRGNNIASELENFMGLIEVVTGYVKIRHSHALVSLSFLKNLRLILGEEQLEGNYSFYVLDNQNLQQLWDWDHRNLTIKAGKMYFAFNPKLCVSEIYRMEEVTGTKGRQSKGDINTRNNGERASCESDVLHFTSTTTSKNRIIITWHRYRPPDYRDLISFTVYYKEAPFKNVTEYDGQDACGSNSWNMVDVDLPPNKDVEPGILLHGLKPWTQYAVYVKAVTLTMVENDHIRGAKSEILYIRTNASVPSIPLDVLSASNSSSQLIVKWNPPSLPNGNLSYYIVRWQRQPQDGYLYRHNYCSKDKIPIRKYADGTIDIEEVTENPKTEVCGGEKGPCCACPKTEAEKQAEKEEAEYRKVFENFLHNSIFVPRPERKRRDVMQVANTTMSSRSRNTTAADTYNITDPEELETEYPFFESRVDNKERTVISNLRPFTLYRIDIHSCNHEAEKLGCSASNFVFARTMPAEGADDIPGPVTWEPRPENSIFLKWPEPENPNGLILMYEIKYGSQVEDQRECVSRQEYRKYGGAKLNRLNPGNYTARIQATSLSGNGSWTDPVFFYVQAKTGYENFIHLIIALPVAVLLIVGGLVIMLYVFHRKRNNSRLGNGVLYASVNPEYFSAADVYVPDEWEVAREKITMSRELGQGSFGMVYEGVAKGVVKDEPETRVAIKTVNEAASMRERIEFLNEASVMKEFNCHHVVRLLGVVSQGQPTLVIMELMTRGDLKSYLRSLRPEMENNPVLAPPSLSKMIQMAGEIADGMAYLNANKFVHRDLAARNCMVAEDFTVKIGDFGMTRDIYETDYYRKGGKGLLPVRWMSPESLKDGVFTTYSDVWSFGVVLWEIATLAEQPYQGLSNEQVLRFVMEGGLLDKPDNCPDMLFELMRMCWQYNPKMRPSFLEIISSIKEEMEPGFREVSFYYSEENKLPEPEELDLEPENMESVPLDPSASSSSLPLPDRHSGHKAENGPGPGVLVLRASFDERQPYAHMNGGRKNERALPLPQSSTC

SMILES | EC50 (IGF-1R [1]; FM55 melanoma) [nM] | EC50 (IGF-1R [1]; MCF-7 breast cancer) [nM] | EC50 (IGF-1R [1]; [7]) [nM] | EC50 (IGF-1R [1]; PC-3 prostate cancer) [nM] | EC50 (IGF-1R [1]; RD-ES Ewing's sarcoma) [nM] | EC50 (IGF-1R [1]; SK-MEL-5 melanoma) [nM] | EC50 (IGF-1R [1]; SK-MEL-28 melanoma) [nM] | Level of phosphorylation in intact cells, substrate IR (insulin receptor (IR)) [% OD] | Level of phosphorylation in intact cells, substrate IRS-1 [2] [% OD] | Level of phosphorylation in intact cells, substrate PDGFR [3] [% OD] | IGF-1R phosphorylation (IGF-1R [4]) | EC50 (HepG2 hepatoma cell line; Homo sapiens, HepG2, 48 h; read-out: EC50 for cell viability) [nM] | Level of phosphorylation in intact cells, substrate EGFR [5] [% OD] | EC50 ([6]; PC-3, 48 h) [nM] | EC50 (IGF-1R [1]; BE melanoma) [nM] | EC50 (IGF-1R [1]; DWB melanoma) [nM] | EC50 (IGF-1R [1]; SK-MEL-2 melanoma) [nM] | EC50 (HepG2 hepatoma cell line; Homo sapiens, HepG2, 48 h, read-out: EC50 for cell viability) [nM] | EC50 ([6]; 48 h) [nM]
COc1cc([C@@H]2c3cc4c(cc3[C@H](O)[C@H]3COC(=O)[C@@H]23)OCO4)cc(OC)c1OC [Picropodophyllin, picropodophyllin] | 60 | 40 | 30 | 90 | 50 | 40 | 40 | 100 | 17 | 104 | 35 | > 15000 | 106 | 90 |  |  |  |  | 
COc1cc([C@@H]2c3cc4c(cc3[C@H](O)[C@H]3COC(=O)[C@H]23)OCO4)cc(OC)c1OC [Podophyllotoxin, podophyllotoxin] | 40 | 50 | 20 | 60 | 30 | 30 | 30 | 101 | 10 | 100 | 45 |  | 107 |  | 40 | 30 | 40 | > 15000 | 60
